In patent publication US6265423A, “Aromatic polycyclic retinoid-type derivatives, method for preparing same, and use thereof for making pharmaceutical and cosmetic compositions” (priority 1996, dated 2001):
“Also recorded” adds a separate entry of the source.

Assays:
RARα-ERcassette = experiment: Transactivation, chimerical receptor RARα-ERcassette (HeLa); type: cell-based; settings: 10^-6 M; TTNPB 10^-8 M = 100
Text: (§1) The HeLa cells are co-transfected by a plasmid which codes for a retinoic receptor in which the C domain of bonding to the DNA is substituted by that of the receptor to RE oestrogens, and a plasmid which places the expression of the luciferase under the control of an ERE (Element of Response to Oestrogens). The expressed chimerical receptors are designated as RARα-ERcassette, RARβ-ERcassette, RARγ-ERcassette and RXRα-ERcassette. The A, B, D, E and F regions of the natural receptor are preserved as well as the transcriptional co-operation between the activation domains AF-1 and AF-2. These transitory transfection experiments follow the method of co-precipitation to calcium phosphate. The HeLa cells are co-transfected by […] of plasmid coding for the chimerical receptor, […] of reporter plasmid and […] of expression vector CMV-β-galactosidase used as an internal control of transfection. 24 hours after the transfection, the cells are incubated for 16 hours with the different effectors.
(§2) In this type of chimerical receptor, the C domain of bonding to the DNA of RAR is substituted by that of the receptor to the RE oestrogens. The protein obtained is close to the natural RAR receptor and preserves the transcriptional properties of the AF-1 and AF-2 domains. It modulates the transcription by means of an ERE. This RAR-ERcassette model allows one to observe a transcriptional response to a more physiological ligand.

RARβ-ERcassette = experiment: Transactivation, chimerical receptor RARβ-ERcassette (HeLa); type: cell-based; settings: 10^-6 M; TTNPB 10^-8 M = 100
Text: as §1, §2

[1] = test system: response element RARE of RARβ gene, endogenic retinoic receptors, HRLN lineage; experiment: HRLN transactivation (RARE-luciferase, stably transfected HeLa); type: cell-based; settings: Homo sapiens, HeLa; for EC50: concentrations from 1 nM to 1 μM; for Emax: read-out: HRLN transactivation, E max
Method: (§3) MCF-7 cells and HeLa are cultivated in DMFM with phenol red to which 5% foetal calf serum is added. The T47-D cells are cultivated in RPMI to which 10% foetal calf serum is added. The experimental tests are carried out in DMEM without phenol red to which foetal calf serum treated with dextran carbon is added at 3%. […] The experiments using the different retinoids are carried out sheltered from the light so as to avoid any isomerisation.
(§4) Certain properties of the retinoids have been determined using more developed cellular models. These models consist of cellular lineages transfected in a stable fashion by recombinant plasmids which place the expression of the gene of the luciferase under the control of different nuclear response elements. […] The tests carried out in duplicate are described below for each of these models.
The cellular lineages HRLN and HRL+N allow one to study the activation of an RARE by endogenic receptors using ligands at physiological concentrations. These lineages derive from HeLa cells transfected in a stable fashion by a reporter gene which places the expression of the gene of the luciferase under the control of a nuclear response element RARE (RARE3 -tk-Luc). The HeLa cells express all the known receptors of the retinoic acid (RARα,β,γ and RXRα,β,γ) with a predominance of RARα and RXRα. The response element RARE used for the HRLN cells corresponds to the sequence of the natural gene of the RARβ receptor (GGTTCAnnnnnAGTTCA). The HRL+N cells comprise the sequence GAGTGAnnnnnCGGTGA.
This lineage comprises the response element RARE of the natural gene of the RARβ receptor which controls the expression of the gene of the luciferase.

RARγ-ERcassette = experiment: Transactivation, chimerical receptor RARγ-ERcassette (HeLa); type: cell-based; settings: 10^-6 M; TTNPB 10^-8 M = 100
Text: as §1, §2

[2] = test system: ERE-βGlob-Luc, MELN lineage (MCF-7); experiment: Anti-oestrogenic effect, MELN lineage activated by estradiol; type: cell-based, human; settings: for inhibition / inhibition at 0.1 µM / inhibition at 0.01 µM: Homo sapiens, MCF7, cells activated by 10^-9 M estradiol; for inhibition: 10^-6 M; for inhibition at 0.1 µM: 10^-7 M; for inhibition at 0.1 µM / inhibition at 0.01 µM: read-out: anti-oestrogenic effect, inhibition; for inhibition at 0.01 µM: 10^-8 M
Text: as §4
MCF-7 cells express RARα,γ and RXRα. The transfection of MCF-7 cells by an oestrogen-dependent gene (ERE-βGlob-Luc) has permitted the establishment of the MELN cellular lineage, used to determine the anti-oestrogenic activity of the retinoids. These cells contain the gene of the luciferase under the transcriptional control of the promoter of the βGlobine and of the response element ERE isolated from the gene of chicken vitelogenine A2. The experiments are carried out with MELN cells activated by 10^-9 M estradiol. The level of base activity of the MELN cells is obtained with the anti-oestrogen 1 μM 4-OH-tamoxifen (hydroxytamoxifen).
The effect of the products tested on the cells activated by 10^-9 M estradiol is expressed as a percentage, the level of base activity being deducted.

T-47D cells = experiment: Effect on oestrogen-induced proliferation of T-47D cells; type: cell-based, human; settings: estradiol 10^-9 M
Method: as §3
So as to test the anti-proliferation effect of the retinoids, growth experiments under oestrogenic conditions were carried out on cells MCF-7 and T-47D. These are the human oestrogen-dependent mammary cancer cells which express the receptor to RE oestrogens. The effect of the molecules is evaluated after 7 days of culture in oestrogenic conditions (estradiol 10^-9 M) by dosing the cellular DNA. The cells are distributed in 24 well plates at a density of 2×10^4 cells per well. The tests with the different retinoids are carried out in triplicate and the culture medium is changed after 4 days of growth.

RAR and RXR receptors = experiment: RAR/RXR activity profile drawn from the models; type: cell-based
Text: The reference molecules have allowed one to show the effectiveness and the complementary nature of the different models used and lead to the following conclusions: chimerical constructions GAL-RAR and RAR-ERcassette allow the determination of the RAR agonist profile of molecules, but also an RXR agonist activity with RAR-ERcassette, the HRLN lineage mainly conveys the activity of a compound mediated by endogenic RARα, the HRL+N lineage also provides evidence of an RXR agonist activity of the retinoids, the anti-oestrogenic effect of the retinoids (oestrogen-induced cellular proliferation and MELN lineage) is mediated by RARα, the anti-AP-1 effect is mediated in the MCF-7 cells (MTLN lineage) by RARα, RARγ and RXRα, and an additive effect exists between the RAR and RXR routes.

[3] = test system: human mammary tumoral lineage T-47D; experiment: Clonogenic test (soft agar), growth of cellular colonies; type: cell-based; settings: T-47D; for activity at 0.01 µM / activity at 0.001 µM / activity at 0.0001 µM: 504 h, 21 days, control = 100%, read-out: mean number of cellular colonies in relation to control; for activity at 0.001 µM: 10^-9 M; for activity at 0.0001 µM: 10^-10 M; for effect on growth of cellular colonies (in words): soft agar
Text: The human tumour stem cells are the clonogenic cells which are the origin of the neoplasic cells which constitute a given tumour. These tumour stem cells are responsible for the recidivism process observable after surgical resection of the primary tumours and are also responsible for the formation of metastases. […] At the level of a tumour or of a tumoral cellular lineage, these clonogenic stem cells distinguish themselves from other clonogenic cells of the tumour or of the neoplasic cellular lineage being considered, by the fact that they preserve their ability to proliferate in the absence of any solid support.
This technique is suitable for the culturing in vitro of most of the tumours and tumoral cellular lineages of various histological types. In the context of this test, the neoplastic cells are cultured on a semi-solid culture medium "soft agar" made up of a mixture of agar and agarose. On this selective support, only tumoral stem cells survive and proliferate. […] The morphological characteristics and the growth of the cellular colonies are also a function of the histological type of the tumours being considered.
These culture conditions are also called "anchorage-independent" conditions.
The base medium "MEM 25 MM HEPES" (Minimum Essential Medium, Life Technologies, Belgium) contains Eagle salts but no L-glutamine. This medium is well suited to the growth of a range of varied diploid cells or primary mammal cells. To this medium is then added:
The tumoral cells are maintained in culture in 25 cm^2 falcon dishes (Life Technologies, Belgium). They are then trypsinised and individualised. Their rate of viability is determined by coloration with trypan blue (Sigma, Belgium). It must be greater than 90%. In the case where this condition is kept to, a cellular suspension at the desired concentration is prepared in a solution of agar at 0. 3%. The cells are then seeded between two layers of agar (Sigma, Belgium) and in 35 mm Petri dishes (Life Technologies, Belgium). The base layer is made up of a 0.5% solution of agar and the top layer is made up of a 0.3% solution of agar. The cupules are then positioned and held in an incubator at 37° C. and 5% of CO2. […] After treatment, the cupules are kept in the incubator for 21 days. It is advisable to examine, during the course of the experiment, the appearance and the increase of the cellular colonies. If after 10 days, no colony appears or is developing, the experiment must be repeated. In the contrary case, on the 21st day, 100 μl of an MTT solution (3-(4,5-dimethylthiazol-2-yl)-2,5 diphenyl tetrazolium bromide; Sigma, Belgium) dissolved in the RPMI culture medium (Roswell park Memorial Institute, Life Technologies, Belgium), at the concentration of 1 mg/ml are deposited on the top layer of the group of cupules. The cells are kept in contact with this solution for a minimum of 3 hours at 37° C.
Using an inverted microscope at low magnification, the number of clones whose surface area is greater thar. 100 μm^2 is determined for the group of cupules representing all the different experimental conditions. Then, for each of these experimental conditions, the mean number of cellular colonies±the standard error on the mean (ESM) is calculated.
The mean number of cellular colonies determined for each experimental condition is expressed as a percentage in relation to the control condition made equal to 100%.

Row | SMILES | RAR-ERcassette RARα transactivation (RARα-ERcassette) | RAR-ERcassette RARβ transactivation (RARβ-ERcassette) | EC50 [1] | Emax [1] | RAR-ERcassette RARγ transactivation (RARγ-ERcassette) | inhibition [2] | inhibition at 0.1 µM [2] | inhibition at 0.01 µM [2] | anti-oestrogenic effect (in words) ([2]; estradiol-activated MELN cells) | effect on oestrogen-induced growth, T-47D (in words) (T-47D cells) | RAR/RXR activity profile (in words) (RAR and RXR receptors) | activity at 0.01 µM ([3]; Homo sapiens, T47D, 10^-8 M) | activity at 0.001 µM ([3]; Homo sapiens, T47D) | activity at 0.0001 µM ([3]; Homo sapiens, T47D) | effect on growth of cellular colonies (in words) [3] | inhibition at 1 µM (T-47D cells; Homo sapiens, T47D, 168 h, 1 μM (10^-6 M), 7 days, read-out: percentage inhibition of growth, T-47D) | inhibition at 0.01 µM ([3]; Homo sapiens, T47D, 10^-8 M, read-out: inhibition of colony growth)
1 | C/C(=C\c1ccc2c(c1)C(C)(C)CCC2(C)C)c1ccc(C(=O)O)cc1 [CB24159, reference compound] | 113% | 117% | 0.08 ± 0.1 nM | 100% | 89% | 22 to 37% | 26 to 43% | 31 to 43% | the most inhibiting of the oestrogenic transcription on the MELN model | inhibits the growth of the T-47D cells in a dose dependent manner with an efficacy greater than that of TTNPB | RAR selective |  |  |  |  |  | 
2 | C/C(=C\c1ccc2c(c1)C(C)(C)CCC2(C)C)c1cc(C(=O)O)cs1 [CB80660] |  |  | 38.3 ± 9.5 nM | 106% |  | 18 to 37% | 20 to 42% | 26% |  |  |  |  |  |  |  |  | 
3 | C/C(=C\c1ccc2c(c1)C(C)(C)CCC2(C)C)c1ccc(C(=O)O)s1 [CB38973] |  |  | 14.9 ± 12.3 nM | 89% |  | 30% |  |  |  |  |  | 38.6 ± 3.6% | 60.1 ± 2% | 68.4 ± 8.3% | inhibit the growth of the cellular colonies; also recorded: significantly inhibit the growth of the colonies | 55% | 
4 | C/C(=C\c1ccc2c(c1)C(C)(C)CCC2(C)C)c1ccc(C(=O)O)nc1 [CB12273, (E) 5-[1-(5,6,7,8-tetrahydro-5,5,8,8-tetramethyl-2-naphthalenyl)-2-propenyl]pyridinyl-2-carboxylic acid] | 90% | 123% | 21.4 ± 5.6 nM | 106% | 106% | 21 to 41% | 7 to 16% | 0% |  |  |  | 71.2 ± 2.9% | 93.9 ± 3.3% | 92.9 ± 21.7% |  |  | 28.8%
5 | C/C(=C\c1ccc2c(c1)C(C)(C)CCC2(C)C)c1cc(C(=O)O)no1 [CB57201] | 73% | 132% | 55.8 ± 70.1 nM | 70% | 84% | 23 to 41% | 1 to 9% | 0% |  |  |  | 64.8 ± 1.2% | 58.9 ± 11% | 75.2 ± 12.2% | inhibit the growth of the cellular colonies; also recorded: significantly inhibit the growth of the colonies |  | 
